Results as given in patent US20200299251A1, “FURAN SKELETON-CONTAINING IMINOGUANIDINE DERIVATIVE AS WELL AS PREPARATION AND APPLICATION THEREOF” (SUN YAT-SEN UNIVERSITY, priority 2017, published 2020).

Key:
[1] = Equilibrium constants and enthalpy changes of the process of absorbing and releasing carbon dioxide; assay type: physicochemical
[2] = Determination of pKa by pH titration with NaOH; assay type: physicochemical
Method: 0.077 g of FUBIG hydrochloride and 0.585 g of NaCl were weighed, the volume was metered to 50 mL with ultrapure water, and 26 μL of HCl (36%) was dropwise added. The mixed solution was stirred at 25° C. until the temperature was stabilized. The pH meter was calibrated respectively using potassium hydrogen phthalate (pH 4.00) buffer, mixed phosphate buffer (pH 6.86), sodium tetraborate buffer (pH 9.18), and then titration was conducted with 0.1M NaOH solution. After each titration, the system was stabilized after waiting for 7min, and then the next titration was conducted. The volume and pH value of each titration were recorded.
Plot was made according to the ph-V (mL). […] The same method was used to obtain: 15° C., pKa1=7.79, pKa2=8.90; at 20° C., pKa1=7.68, pKa2=8.82; at 30° C., pKa1=7.49, pKa2=8.66; at 35° C., pKa1=7.31, pKa2=8.59 (as shown in Table 3).

[3] = Water solubility of FuBIG salts, UV absorbance of saturated aqueous solutions; details: saturated aqueous solution, UV absorbance at 368 nm
Method: The absorbance of the above concentration gradients was determined under this wavelength, and standard curves were plotted to obtain a curve equation Y=14705×−0.0825 (as shown in FIG. 13B).
It was known that the pKa of HCO3^− was 10.32.

[4] = assay type: physicochemical
[5] = Differential scanning calorimetric experiment; assay type: physicochemical; details: 30-200° C., 10 K/min
[6] = Thermogravimetry infrared experiment; assay type: physicochemical; details: 10 K/min
Method: The temperature range was 25-800° C., and the heating rate was 10 K/min. […] It can be seen from FIG. 9B that this molecule can release water molecules and carbon dioxide molecules under the heating condition, and water molecules and carbon dioxide molecules are nearly released at the same time.

[7] = Release of H2O and CO2 by heating in watch glass under normal pressure (weight loss); assay type: physicochemical
Method: The weight-lost solid was dissolved into water, carbon dioxide gas was introduced, and the above substances were stirred for lh to separate out a yellow solid.
The weight was 2.6 g, and weight loss was 29.7%. The weight-lost solid was dissolved into water, carbon dioxide gas was introduced, and the above substances were stirred for 1 h to separate out a yellow solid.
The weight was 2.46 g, and weight loss was 33.7%. The weight-lost solid was dissolved into water, carbon dioxide gas was introduced, and the above substances were stirred for lh to separate out a yellow solid.
The weight was 2.45 g, and weight loss was 33.7%. The weight-lost solid was dissolved into water, carbon dioxide gas was introduced, and the above substances were stirred for lh to separate out a yellow solid.

N=C(N)N/N=C/c1ccc(/C=N/NC(=N)N)o1 [FuBIG]
Enthalpy change ΔH ([1]; FuBIG dissolution): 49.19 kJ/mol | Equilibrium constant K ([1]; FuBIG dissolution): 4.03 × 10^−1 | Enthalpy change ΔH ([1]; FuBIG protonation): 46.08 kJ/mol | Equilibrium constant K ([1]; FuBIG protonation): 1.91 × 10^−12 | Enthalpy change ΔH ([1]; Total CO2 absorbing process): -116.1 kJ/mol | Equilibrium constant K ([1]; Total CO2 absorbing process): 5.97 × 10^4 | Enthalpy change ΔH ([1]; Total CO2 releasing process): 209.31 kJ/mol | pKa1 ([2]; 15° C.): 7.79 | pKa2 ([2]; 15° C.): 8.90 | pKa1 ([2]; 20° C.): 7.68 | pKa2 ([2]; 20° C.): 8.82 | pKa1 ([2]; 25° C.): 7.57 | pKa2 ([2]; 25° C.): 8.71 | pKa1 ([2]; 30° C.): 7.49 | pKa2 ([2]; 30° C.): 8.66 | pKa1 ([2]; 35° C.): 7.31 | pKa2 ([2]; 35° C.): 8.59 | melting point: 244 to 246 °C

N=C(N)NN=Cc1ccc(C=NNC(=N)N)o1.O.O.O=[N+]([O-])O.O=[N+]([O-])O
Solubility(FuBIG cation concentration, M) [3]: 3.3 (2)×10^−2 M

N=C(N)NN=Cc1ccc(C=NNC(=N)N)o1.O.O.O.O.O=C(O)O
Enthalpy change ΔH ([1]; FuBIGH2(CO3)(H2O)4 precipitate): -101.57 kJ/mol | Equilibrium constant K ([1]; FuBIGH2(CO3)(H2O)4 precipitate): 1.63 × 10^7 | pH of saturated aqueous solution ([4]; pH meter): 8.48 | concentration of carbonate ion [CO3^2−] in the saturated solution ([4]; saturated aqueous solution, pH 8.48): 1.3(3)×10^−4 M | temperature range of release of carbon dioxide and water (DSC) [5]: 97.89-109.13 °C | Solubility(FuBIG cation concentration, M) [3]: 9.3 (4)×10^−3 M | temperature at which the weight loss rate is the maximum ([6]; 25-800° C.): 100 °C | temperature at which water and carbon dioxide molecules are completely lost ([6]; 25-800° C.): 165 °C | weight loss ([6]; at 165° C.): 36.31% | weight loss ([7]; heated for 5 h at 100° C.): 33.6% | weight loss ([7]; heated for 12 h at 70° C.): 29.7% | weight loss ([7]; heated for 12 h at 120° C.): 33.7% | weight loss ([7]; heated for 12 h at 180° C.): 33.7%

Cl.N=C(N)NN=Cc1ccc(C=NNC(=N)N)o1
Solubility(FuBIG cation concentration, M) [3]: 0.74 (6) M

N=C(N)NN=Cc1ccc(C=NNC(=N)N)o1.O=S(O)O
Solubility(FuBIG cation concentration, M) [3]: 1.4 (2)×10^−3 M
